Reference: ChEMBL document CHEMBL1201862, “PubChem BioAssay data set” (2004)
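96-well plates; 48 h exposure; 5 concentrations. Endpoints by linear interpolation between flanking doses. Not reached: highest tested concentration assigned. Abbreviation: GI50, concentration required for 50% inhibition of growth.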 Active and inactive are the calls of the source. No stated cut-off is given here; in the data, active = GI50 up to about 1.1 µM and inactive = higher.

Experiments:
Test in all cases: inhibition of tumour cell growth, NCI panel, 48 h
SNB-75 = tested on: SNB-75
CCRF-CEM = tested on: CCRF-CEM
UACC-257 = tested on: UACC-257
HL-60 = tested on: HL-60
OVCAR-8 = tested on: OVCAR-8
Malme-3M = tested on: Malme-3M
786-0 = tested on: 786-0
HOP-62 = tested on: HOP-62
A549 = tested on: A549
NCI-H226 = tested on: NCI-H226
HT-29 = tested on: HT-29
SF-268 = tested on: SF-268
HCT-116 = tested on: HCT-116
HCT-15 = tested on: HCT-15
M14 = tested on: M14
OVCAR-3 = tested on: OVCAR-3
ACHN = tested on: ACHN
OVCAR-5 = tested on: OVCAR-5
LOX IMVI = tested on: LOX IMVI

## Nc1cc(C(=O)NC2C3CC4CC(C3)CC2C4)nc(S)n1 (stereo not drawn)
SNB-75
  GI50: > 100 µM (inactive)
CCRF-CEM
  GI50: > 100 µM (inactive)
UACC-257
  GI50: > 100 µM (inactive)
HL-60
  GI50: > 100 µM (inactive)
OVCAR-8
  GI50: > 100 µM (inactive)
Malme-3M
  GI50: > 100 µM (inactive)
786-0
  GI50: > 100 µM (inactive)
HOP-62
  GI50: > 100 µM (inactive)
A549
  GI50: > 100 µM (inactive)
NCI-H226
  GI50: > 100 µM (inactive)
HT-29
  GI50: > 100 µM (inactive)
SF-268
  GI50: > 100 µM (inactive)
HCT-116
  GI50: > 100 µM (inactive)
HCT-15
  GI50: > 100 µM
M14
  GI50: > 100 µM (inactive)
OVCAR-3
  GI50: > 100 µM (inactive)

## O=[N+]([O-])c1cccc(C2N3CCCCC3[C@@H]3c4[nH]c5ccccc5c4CCN23)c1 (stereo partly drawn)
ACHN
  GI50: 15.9 µM (inactive)
CCRF-CEM
  GI50: 13.2 µM (inactive)
UACC-257
  GI50: 14 µM (inactive)
HL-60
  GI50: 10.1 µM (inactive)
OVCAR-8
  GI50: 31.4 µM (inactive)
Malme-3M
  GI50: 2.55 µM (inactive)
OVCAR-5
  GI50: 16.9 µM (inactive)
786-0
  GI50: 16.9 µM (inactive)
HOP-62
  GI50: 16.3 µM (inactive)
A549
  GI50: 14 µM (inactive)
HT-29
  GI50: 6.82 µM (inactive)
SF-268
  GI50: 12 µM (inactive)
HCT-15
  GI50: 10.4 µM
M14
  GI50: 14.5 µM (inactive)
OVCAR-3
  GI50: 15.7 µM (inactive)

## COc1ccc(/C=C/C(=O)c2c(-c3ccccc3)nn(C)c(=O)c2N2CCOCC2)cc1
ACHN
  GI50: > 100 µM (inactive)
CCRF-CEM
  GI50: 63 µM (inactive)
HL-60
  GI50: 21.4 µM (inactive)
OVCAR-8
  GI50: > 100 µM (inactive)
786-0
  GI50: > 100 µM (inactive)
A549
  GI50: > 100 µM (inactive)
HT-29
  GI50: > 100 µM (inactive)
SF-268
  GI50: > 100 µM (inactive)
HCT-116
  GI50: 54.2 µM (inactive)
HCT-15
  GI50: 65.9 µM
M14
  GI50: > 100 µM (inactive)
LOX IMVI
  GI50: 68.1 µM (inactive)

## Cc1c(C(=O)/C=C/c2ccc(N(C)C)cc2)c(=O)n(-c2ccccc2)n1C
ACHN
  GI50: > 100 µM (inactive)
CCRF-CEM
  GI50: > 100 µM (inactive)
UACC-257
  GI50: > 100 µM (inactive)
OVCAR-8
  GI50: > 100 µM (inactive)
Malme-3M
  GI50: > 100 µM (inactive)
OVCAR-5
  GI50: > 100 µM (inactive)
786-0
  GI50: > 100 µM (inactive)
A549
  GI50: > 100 µM (inactive)
NCI-H226
  GI50: > 100 µM (inactive)
HT-29
  GI50: > 100 µM (inactive)
SF-268
  GI50: > 100 µM (inactive)
HCT-116
  GI50: > 100 µM (inactive)
HCT-15
  GI50: > 100 µM
LOX IMVI
  GI50: > 100 µM (inactive)
OVCAR-3
  GI50: > 100 µM (inactive)

## Cc1ccc(-c2cc(=S)n(-c3ccccc3)c3[nH]c(=S)n(-c4ccccc4)c(=N)c23)cc1
ACHN
  GI50: > 100 µM (inactive)
SNB-75
  GI50: > 100 µM (inactive)
CCRF-CEM
  GI50: > 100 µM (inactive)
UACC-257
  GI50: > 100 µM (inactive)
HL-60
  GI50: > 100 µM (inactive)
OVCAR-8
  GI50: > 100 µM (inactive)
Malme-3M
  GI50: > 100 µM (inactive)
OVCAR-5
  GI50: > 100 µM (inactive)
786-0
  GI50: > 100 µM (inactive)
HOP-62
  GI50: > 100 µM (inactive)
A549
  GI50: > 100 µM (inactive)
NCI-H226
  GI50: > 100 µM (inactive)
HT-29
  GI50: > 100 µM (inactive)
SF-268
  GI50: > 100 µM (inactive)
HCT-116
  GI50: > 100 µM (inactive)
HCT-15
  GI50: > 100 µM
M14
  GI50: > 100 µM (inactive)
OVCAR-3
  GI50: > 100 µM (inactive)

## COc1ccc2c(c1)[n+]([O-])c(-c1ccccc1Cl)c(N)[n+]2[O-]
ACHN
  GI50: 86.1 µM (inactive)
SNB-75
  GI50: 75 µM (inactive)
UACC-257
  GI50: 36.6 µM (inactive)
HL-60
  GI50: 70.3 µM (inactive)
OVCAR-8
  GI50: > 100 µM (inactive)
Malme-3M
  GI50: > 100 µM (inactive)
OVCAR-5
  GI50: > 100 µM (inactive)
786-0
  GI50: > 100 µM (inactive)
HOP-62
  GI50: > 100 µM (inactive)
A549
  GI50: 94.2 µM (inactive)
NCI-H226
  GI50: > 100 µM (inactive)
HT-29
  GI50: 62.5 µM (inactive)
SF-268
  GI50: 74.3 µM (inactive)
HCT-116
  GI50: > 100 µM (inactive)
HCT-15
  GI50: 39.9 µM
M14
  GI50: 73.1 µM (inactive)
OVCAR-3
  GI50: 40.6 µM (inactive)
